# Results as given in patent US8952024B2, “Herbicidal pyrimidone derivatives” (E I du Pont de Nemours and Company, priority 2009, dated 2015).
# Key:
# Format in all cases: in vivo
# [1] = tested on: morningglory (Ipomoea spp.); assay: Test A pre-/postemergence plant response
# In short: (§1)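 Injury was scored visually after roughly ten days against untreated controls, 0 = no effect, 100 = complete control. Test chemicals in a surfactant-containing non-phytotoxic solvent were sprayed either onto soil preemergence or onto one- to two-leaf, 2–10 cm plants postemergence.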
# [2] = tested on: giant foxtail (Setaria faberii); assay: Test A pre-/postemergence plant response
# In short: as §1
# [3] = tested on: wheat (Triticum aestivum); assay: Test A pre-/postemergence plant response
# In short: as §1
# [4] = tested on: pigweed (Amaranthus retroflexus); assay: Test A pre-/postemergence plant response
# In short: as §1
# [5] = tested on: large crabgrass (Digitaria sanguinalis); assay: Test A pre-/postemergence plant response
# In short: as §1
# [6] = tested on: corn (Zea mays); assay: Test A pre-/postemergence plant response
# In short: as §1
# [7] = tested on: velvetleaf (Abutilon theophrasti); assay: Test A pre-/postemergence plant response
# In short: as §1
# [8] = tested on: barnyardgrass (Echinochloa crus-galli); assay: Test A pre-/postemergence plant response
# In short: as §1
# [9] = tested on: rice (Oryza sativa); assay: Test B flooded paddy test; conditions: for Plant response rating, Flood, Rice: 250 g ai/ha, flooded paddy test, visual rating on 0 to 100 scale (0 no effect, 100 complete control) after 13 to 15 days; for Plant response rating, Rice: Flood (flooded paddy test), 13 to 15 days
# In short: (§2)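 Plants were grown to the 2-leaf stage, then pots were flooded to 3 cm above the soil and compounds were applied directly into the paddy water. That depth was held throughout. After 13 to 15 days in a greenhouse, injury was visually rated against controls on a 0–100 scale.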
# [10] = tested on: umbrella sedge (Cyperus difformis); assay: Test B flooded paddy test; conditions: for Plant response rating, Flood, Sedge, Umbrella: 250 g ai/ha, flooded paddy test, visual rating on 0 to 100 scale (0 no effect, 100 complete control) after 13 to 15 days; for Plant response rating, Sedge, Umbrella: Flood (flooded paddy test), 13 to 15 days
# In short: as §2
# [11] = tested on: ducksalad (Heteranthera limosa); assay: Test B flooded paddy test; conditions: for Plant response rating, Flood, Ducksalad: 250 g ai/ha, flooded paddy test, visual rating on 0 to 100 scale (0 no effect, 100 complete control) after 13 to 15 days; for Plant response rating, Ducksalad: Flood (flooded paddy test), 13 to 15 days
# In short: as §2
# [12] = tested on: barnyardgrass (Echinochloa crus-galli); assay: Test B flooded paddy test; conditions: for Plant response rating, Flood, Barnyardgrass: 250 g ai/ha, flooded paddy test, visual rating on 0 to 100 scale (0 no effect, 100 complete control) after 13 to 15 days; for Plant response rating, Barnyardgrass: Flood (flooded paddy test), 13 to 15 days
# In short: as §2
# [13] = Postemergence, 125 g ai/ha, 0 to 100 scale where 0 is no effect and 100 is complete control
# [14] = Postemergence, 500 g ai/ha, 0 to 100 scale, 0 = no effect, 100 = complete control, approx. ten days
# [15] = Preemergence, 125 g ai/ha, 0 to 100 scale, 0 = no effect, 100 = complete control
# [16] = Preemergence, 500 g ai/ha, visual injury, 0 to 100 scale (0 no effect, 100 complete control), approx. ten days
# [17] = 62 g ai/ha, scale of 0 to 100 where 0 is no effect and 100 is complete control
# [18] = 125 g ai/ha, scale 0 to 100, 0 is no effect, 100 is complete control
# [19] = Flood, 31 g ai/ha, scale 0 to 100 (0 no effect, 100 complete control)
# [20] = Postemergence, 500 g ai/ha, visual injury, 0 to 100 scale (0 no effect, 100 complete control), approx. ten days
# [21] = Preemergence, 500 g ai/ha, 0 to 100 scale, 0 = no effect, 100 = complete control
smiles,measurement,setting,value
CCCc1ncc(C(=O)C2=C(O)CCCC2=O)c(=O)n1Cc1cccc(OC)c1 [Compound 104],"Plant response rating, Morningglory",[1]; [13],70
same,"Plant response rating, Morningglory",[1]; [14],100
same,"Plant response rating, Morningglory",[1]; [15],0
same,"Plant response rating, Morningglory",[1]; [16],0
same,"Plant response rating, Foxtail, Giant",[2]; [13],0
same,"Plant response rating, Foxtail, Giant",[2]; [14],0
same,"Plant response rating, Foxtail, Giant",[2]; [15],0
same,"Plant response rating, Foxtail, Giant",[2]; [16],0
same,"Plant response rating, Wheat",[3]; [13],0
same,"Plant response rating, Wheat",[3]; [14],0
same,"Plant response rating, Wheat",[3]; [15],0
same,"Plant response rating, Wheat",[3]; [16],0
same,"Plant response rating, Pigweed",[4]; [13],100
same,"Plant response rating, Pigweed",[4]; [14],100
same,"Plant response rating, Pigweed",[4]; [15],80
same,"Plant response rating, Pigweed",[4]; [16],90
same,"Plant response rating, Crabgrass, Large",[5]; [13],0
same,"Plant response rating, Crabgrass, Large",[5]; [14],0
same,"Plant response rating, Crabgrass, Large",[5]; [15],0
same,"Plant response rating, Crabgrass, Large",[5]; [16],0
same,"Plant response rating, Corn",[6]; [13],0
same,"Plant response rating, Corn",[6]; [14],0
same,"Plant response rating, Corn",[6]; [15],0
same,"Plant response rating, Corn",[6]; [16],0
same,"Plant response rating, Velvetleaf",[7]; [13],70
same,"Plant response rating, Velvetleaf",[7]; [14],80
same,"Plant response rating, Velvetleaf",[7]; [15],0
same,"Plant response rating, Velvetleaf",[7]; [16],40
same,"Plant response rating, Barnyardgrass",[8]; [13],10
same,"Plant response rating, Barnyardgrass",[8]; [14],40
same,"Plant response rating, Barnyardgrass",[8]; [15],0
same,"Plant response rating, Barnyardgrass",[8]; [16],0
same,"Plant response rating, Flood, Rice",[9],0
same,"Plant response rating, Rice",[9]; [17],0
same,"Plant response rating, Rice",[9]; [18],0
same,Rice plant response rating,[9]; [19],0
same,"Plant response rating, Flood, Sedge, Umbrella",[10],0
same,"Plant response rating, Sedge, Umbrella",[10]; [17],0
same,"Plant response rating, Sedge, Umbrella",[10]; [18],0
same,"Sedge, Umbrella plant response rating",[10]; [19],0
same,"Plant response rating, Flood, Ducksalad",[11],0
same,"Plant response rating, Ducksalad",[11]; [17],0
same,"Plant response rating, Ducksalad",[11]; [18],0
same,Ducksalad plant response rating,[11]; [19],0
same,"Plant response rating, Flood, Barnyardgrass",[12],0
same,"Plant response rating, Barnyardgrass",[12]; [17],0
same,"Plant response rating, Barnyardgrass",[12]; [18],0
same,Barnyardgrass plant response rating,[12]; [19],0
CCn1c(-c2cccc(C)c2)ncc(C(=O)C2=C(O)C3CCC(C3)C2=O)c1=O (stereo not shown) [Compound 231],"Plant response rating, Morningglory",[1]; [13],90
same,Morningglory plant response rating,[1]; [20],100
same,"Plant response rating, Morningglory",[1]; [15],10
same,"Plant response rating, Morningglory",[1]; [21],80
same,"Plant response rating, Foxtail, Giant",[2]; [13],60
same,"Foxtail, Giant plant response rating",[2]; [20],80
same,"Plant response rating, Foxtail, Giant",[2]; [15],0
same,"Plant response rating, Foxtail, Giant",[2]; [21],60
same,"Plant response rating, Wheat",[3]; [13],0
same,Wheat plant response rating,[3]; [20],0
same,"Plant response rating, Wheat",[3]; [15],0
same,"Plant response rating, Wheat",[3]; [21],0
same,"Plant response rating, Pigweed",[4]; [13],80
same,Pigweed plant response rating,[4]; [20],90
same,"Plant response rating, Pigweed",[4]; [15],50
same,"Plant response rating, Pigweed",[4]; [21],80
same,"Plant response rating, Crabgrass, Large",[5]; [13],50
same,"Crabgrass, Large plant response rating",[5]; [20],70
same,"Plant response rating, Crabgrass, Large",[5]; [15],40
same,"Plant response rating, Crabgrass, Large",[5]; [21],90
same,"Plant response rating, Corn",[6]; [13],0
same,Corn plant response rating,[6]; [20],40
same,"Plant response rating, Corn",[6]; [15],0
same,"Plant response rating, Corn",[6]; [21],20
same,"Plant response rating, Velvetleaf",[7]; [13],90
same,Velvetleaf plant response rating,[7]; [20],100
same,"Plant response rating, Velvetleaf",[7]; [15],50
same,"Plant response rating, Velvetleaf",[7]; [21],60
same,"Plant response rating, Barnyardgrass",[8]; [13],70
same,Barnyardgrass plant response rating,[8]; [20],90
same,"Plant response rating, Barnyardgrass",[8]; [15],0
same,"Plant response rating, Barnyardgrass",[8]; [21],60
same,"Plant response rating, Flood, Rice",[9],0
same,"Plant response rating, Rice",[9]; [17],0
same,"Plant response rating, Flood, Sedge, Umbrella",[10],75
same,"Plant response rating, Sedge, Umbrella",[10]; [17],0
same,"Plant response rating, Flood, Ducksalad",[11],0
same,"Plant response rating, Ducksalad",[11]; [17],0
same,"Plant response rating, Flood, Barnyardgrass",[12],40
same,"Plant response rating, Barnyardgrass",[12]; [17],40
